Source: ChEMBL document CHEMBL1201862, “PubChem BioAssay data set” (2004)
The source made the active and inactive calls.

Legend:
[1] = Luminescence Cell-Based Dose Retest to Confirm Inhibitors of Cancer Stem Cells. [Related pubchem assays (depositor defined):AID2717, AID2721]; type: functional; settings: Homo sapiens
[2] = biological target: Disintegrin and metalloproteinase domain-containing protein 17 (Homo sapiens, UniProt P78536); assay: inhibition of ADAM17 substrate cleavage – biochemical, quenched FRET substrate, counter-screen for ADAM10 exosite inhibitor project, dose response (AID 743253)
Disintegrin and metalloproteinase domain-containing protein 17, sequence (P78536 whole entry, the tested form may be a part): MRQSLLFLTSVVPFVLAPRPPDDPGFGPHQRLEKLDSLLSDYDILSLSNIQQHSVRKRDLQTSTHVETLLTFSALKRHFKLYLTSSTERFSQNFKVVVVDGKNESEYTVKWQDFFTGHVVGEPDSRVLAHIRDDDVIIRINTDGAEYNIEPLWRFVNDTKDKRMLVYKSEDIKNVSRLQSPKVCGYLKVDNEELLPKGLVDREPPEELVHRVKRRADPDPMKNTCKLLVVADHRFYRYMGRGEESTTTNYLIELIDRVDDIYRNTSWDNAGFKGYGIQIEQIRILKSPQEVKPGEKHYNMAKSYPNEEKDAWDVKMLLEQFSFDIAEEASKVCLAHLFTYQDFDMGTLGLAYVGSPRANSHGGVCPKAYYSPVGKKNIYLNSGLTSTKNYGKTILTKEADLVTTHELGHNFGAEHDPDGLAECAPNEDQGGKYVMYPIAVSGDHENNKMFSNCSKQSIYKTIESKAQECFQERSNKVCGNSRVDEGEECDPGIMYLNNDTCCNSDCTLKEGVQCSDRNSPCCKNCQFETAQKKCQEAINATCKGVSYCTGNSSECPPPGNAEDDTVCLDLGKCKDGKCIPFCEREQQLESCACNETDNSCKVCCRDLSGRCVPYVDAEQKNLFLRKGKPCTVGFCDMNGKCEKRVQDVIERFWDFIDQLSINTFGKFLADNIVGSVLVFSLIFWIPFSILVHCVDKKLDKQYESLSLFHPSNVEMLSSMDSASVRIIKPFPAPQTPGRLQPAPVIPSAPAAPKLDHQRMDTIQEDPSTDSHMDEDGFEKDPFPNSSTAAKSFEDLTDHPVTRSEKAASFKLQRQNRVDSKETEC

[3] = potency of ADAM10 substrate cleavage blockers – biochemical, QFRET, dose response (AID 743254);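 note: ADAM10 enzyme with the DM2 quenched FRET peptide as substrate; EDANS fluorescence gain as the protease cuts the substrate; inhibitor potency against ADAM10 proteolytic activity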
[4] = biological target: Vascular endothelial growth factor receptor 2 (Homo sapiens, UniProt P35968); type: functional
[5] = biological target: Rho-associated protein kinase 1 (Homo sapiens, UniProt Q13464); type: functional;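 note: measured within a broad kinome-wide panel profiling many kinases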
Caspase-8 = Caspase-8 (Homo sapiens, UniProt Q14790); assay: inhibitors of purified CASP8 protease – biochemical, Z-IETD-R110 fluorescence, cherry-picked samples, selectivity assay for caspase-6 inhibitor project, dose response (AID 743294)
Caspase-8, sequence (Q14790 217-374 limits assumed): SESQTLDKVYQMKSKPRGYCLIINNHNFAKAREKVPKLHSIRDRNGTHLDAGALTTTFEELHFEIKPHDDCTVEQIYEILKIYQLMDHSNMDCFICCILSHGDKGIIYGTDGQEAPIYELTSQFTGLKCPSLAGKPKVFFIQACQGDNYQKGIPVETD
Caspase-8, sequence (Q14790 385-479 limits assumed): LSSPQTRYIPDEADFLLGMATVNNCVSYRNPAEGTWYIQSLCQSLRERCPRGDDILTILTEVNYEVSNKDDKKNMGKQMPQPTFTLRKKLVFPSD

Caspase-7 = biological target: T1, Caspase-7 (Homo sapiens, UniProt P55210); assay: caspase-7 enzyme inhibition, selectivity check – biochemical, DEVD-R110 fluorescence, cherry-pick, selectivity assay for caspase-6 inhibitor project, dose response (AID 743295); type: functional
T1 sequence (P55210 whole entry): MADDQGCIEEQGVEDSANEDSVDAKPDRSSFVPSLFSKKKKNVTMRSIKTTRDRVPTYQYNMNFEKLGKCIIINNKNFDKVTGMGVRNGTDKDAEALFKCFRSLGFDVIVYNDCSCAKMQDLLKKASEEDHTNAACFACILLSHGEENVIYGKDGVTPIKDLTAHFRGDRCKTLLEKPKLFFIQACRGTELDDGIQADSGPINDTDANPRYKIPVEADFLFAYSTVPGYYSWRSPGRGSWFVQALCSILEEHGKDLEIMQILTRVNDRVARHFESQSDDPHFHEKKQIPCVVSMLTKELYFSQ

Caspase-6 = biological target: T2, Caspase-6 (Homo sapiens, UniProt P55212); assay: inhibition of CASP6 peptide cleavage – biochemical, VEID-R110 fluorescence, cherry-pick, dose response (AID 720632)
T2 sequence (P55212 whole entry): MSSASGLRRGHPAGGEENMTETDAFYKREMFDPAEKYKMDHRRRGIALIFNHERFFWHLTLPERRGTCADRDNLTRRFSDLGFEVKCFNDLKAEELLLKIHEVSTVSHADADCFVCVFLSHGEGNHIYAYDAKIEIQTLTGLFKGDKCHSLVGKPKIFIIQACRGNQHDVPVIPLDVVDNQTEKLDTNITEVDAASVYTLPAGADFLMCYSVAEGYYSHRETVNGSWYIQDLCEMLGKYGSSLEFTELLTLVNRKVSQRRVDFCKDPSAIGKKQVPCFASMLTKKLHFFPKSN

[6] = Late stage assay provider results from the probe development effort to identify inhibitors of the Plasmodium falciparum M18 Aspartyl Aminopeptidase (M18AAP): radiolabel-based cell-based dose response assay to identify compounds that inhibit P. falciparum growth in RBCs, Set 2..; type: functional
[7] = biological target: Fructose-bisphosphate aldolase (Mycobacterium tuberculosis, UniProt P9WQA3); assay: Fluorescence-based biochemical high throughput dose response assay for inhibitors of the fructose-bisphosphate aldolase (FBA) of M. tuberculosis.; type: functional
Fructose-bisphosphate aldolase, sequence (P9WQA3 whole entry): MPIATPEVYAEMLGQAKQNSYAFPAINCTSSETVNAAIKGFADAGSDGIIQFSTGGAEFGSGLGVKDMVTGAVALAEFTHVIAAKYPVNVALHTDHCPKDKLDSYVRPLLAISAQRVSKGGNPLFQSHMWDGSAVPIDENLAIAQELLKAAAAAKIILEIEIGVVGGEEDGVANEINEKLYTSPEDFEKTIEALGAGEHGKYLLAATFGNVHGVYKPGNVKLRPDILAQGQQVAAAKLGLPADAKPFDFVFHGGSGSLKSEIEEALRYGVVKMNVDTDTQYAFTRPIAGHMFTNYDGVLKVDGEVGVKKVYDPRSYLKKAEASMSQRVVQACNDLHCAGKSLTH

[8] = MITF Orthogonal Assay: SK-MEL-5 CTG Assay Measured in Cell-Based System Using Plate Reader - 2084-02_Inhibitor_Dose_DryPowder_Activity_Set7.; type: functional
[9] = MITF: Counter assay: A375 proliferation Measured in Cell-Based System Using Plate Reader - 2084-03_Inhibitor_Dose_DryPowder_Activity_Set8.; type: functional; settings: A-375
[10] = viability of uninfected HEp-2 cells – cell-based, HTS, cytotoxicity control for RSV inhibitor project, dose response (AID 2410); type: functional; settings: human respiratory syncytial virus
Beta-galactosidase = Beta-galactosidase (Escherichia coli, UniProt Q8VNN2); assay: Dose response counterscreen for EBI2 assay utilizing the enzyme, b-galactosidase.; type: functional
Beta-galactosidase, sequence (Q8VNN2 whole entry): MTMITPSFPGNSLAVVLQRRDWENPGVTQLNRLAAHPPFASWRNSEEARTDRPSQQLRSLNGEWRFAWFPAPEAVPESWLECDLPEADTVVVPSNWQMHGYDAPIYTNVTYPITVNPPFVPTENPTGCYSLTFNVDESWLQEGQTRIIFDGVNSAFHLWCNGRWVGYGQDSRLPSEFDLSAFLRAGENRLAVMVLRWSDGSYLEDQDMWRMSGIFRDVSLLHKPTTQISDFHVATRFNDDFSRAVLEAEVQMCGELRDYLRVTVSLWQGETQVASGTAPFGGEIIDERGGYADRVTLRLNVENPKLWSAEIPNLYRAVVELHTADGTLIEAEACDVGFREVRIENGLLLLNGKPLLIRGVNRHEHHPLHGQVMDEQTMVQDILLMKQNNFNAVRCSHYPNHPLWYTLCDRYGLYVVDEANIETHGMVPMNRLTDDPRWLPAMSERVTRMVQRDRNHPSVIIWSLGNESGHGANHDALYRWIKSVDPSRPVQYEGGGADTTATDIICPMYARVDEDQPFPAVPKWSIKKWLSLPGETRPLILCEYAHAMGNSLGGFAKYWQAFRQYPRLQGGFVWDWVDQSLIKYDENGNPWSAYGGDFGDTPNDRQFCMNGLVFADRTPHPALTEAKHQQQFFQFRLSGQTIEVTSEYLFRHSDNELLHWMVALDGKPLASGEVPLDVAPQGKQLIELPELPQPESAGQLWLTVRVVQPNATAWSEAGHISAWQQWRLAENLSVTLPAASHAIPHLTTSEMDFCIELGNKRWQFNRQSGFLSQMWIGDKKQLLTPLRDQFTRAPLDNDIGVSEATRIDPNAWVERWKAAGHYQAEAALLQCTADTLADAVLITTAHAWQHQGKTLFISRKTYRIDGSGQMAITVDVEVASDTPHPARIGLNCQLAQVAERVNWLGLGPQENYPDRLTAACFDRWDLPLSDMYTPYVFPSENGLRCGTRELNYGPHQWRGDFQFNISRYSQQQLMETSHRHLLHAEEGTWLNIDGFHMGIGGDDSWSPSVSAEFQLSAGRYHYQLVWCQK

[11] = T. cruzi growth inhibition in host cells, dose response, cell-based, plate reader, dry powder, set 2 (AID 652275); type: functional
Estrogen receptor = biological target: T3, Estrogen receptor (Homo sapiens, UniProt P03372);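 note: potency for inhibiting coactivator peptide recruitment to the receptor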
T3 sequence (P03372 whole entry): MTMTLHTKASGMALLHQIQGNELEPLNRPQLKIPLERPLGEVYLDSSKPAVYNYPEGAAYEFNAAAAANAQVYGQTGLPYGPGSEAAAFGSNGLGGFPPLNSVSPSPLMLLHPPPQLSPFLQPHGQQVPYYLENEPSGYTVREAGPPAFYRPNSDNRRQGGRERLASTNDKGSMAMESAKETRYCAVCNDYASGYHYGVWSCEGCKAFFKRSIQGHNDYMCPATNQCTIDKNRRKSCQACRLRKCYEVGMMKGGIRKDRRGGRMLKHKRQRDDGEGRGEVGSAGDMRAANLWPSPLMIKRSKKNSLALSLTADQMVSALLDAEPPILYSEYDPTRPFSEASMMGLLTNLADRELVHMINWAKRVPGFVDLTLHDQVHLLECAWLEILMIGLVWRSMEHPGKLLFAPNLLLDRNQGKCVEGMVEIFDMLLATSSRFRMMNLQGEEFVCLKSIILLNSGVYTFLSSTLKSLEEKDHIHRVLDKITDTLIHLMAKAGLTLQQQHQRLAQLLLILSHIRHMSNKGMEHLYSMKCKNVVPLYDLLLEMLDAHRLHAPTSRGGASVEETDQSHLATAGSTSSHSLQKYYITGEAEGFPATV

[12] = biological target: G-protein coupled receptor 55 (Homo sapiens, UniProt Q9Y2T6); assay: inhibition of LPI-stimulated GPR55 beta-arrestin translocation – imaging, U2OS, beta-arrestin-GFP, LPI agonist, primary screen (AID 2013); type: functional;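 note: antagonist potency measured as reduced agonist-driven arrestin aggregation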
G-protein coupled receptor 55, sequence (Q9Y2T6 whole entry): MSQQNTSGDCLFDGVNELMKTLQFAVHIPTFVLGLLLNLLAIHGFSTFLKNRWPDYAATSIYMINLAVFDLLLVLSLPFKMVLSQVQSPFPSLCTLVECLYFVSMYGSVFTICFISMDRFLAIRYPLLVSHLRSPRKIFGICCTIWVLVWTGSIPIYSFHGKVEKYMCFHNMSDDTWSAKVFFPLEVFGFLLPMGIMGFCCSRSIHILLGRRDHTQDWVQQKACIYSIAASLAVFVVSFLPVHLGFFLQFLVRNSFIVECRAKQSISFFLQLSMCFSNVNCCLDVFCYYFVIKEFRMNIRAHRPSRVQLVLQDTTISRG

fMet-Leu-Phe receptor = fMet-Leu-Phe receptor (Homo sapiens, UniProt P21462); assay: formyl peptide receptor binders – dose response (AID 519); type: functional
fMet-Leu-Phe receptor, sequence (P21462 whole entry): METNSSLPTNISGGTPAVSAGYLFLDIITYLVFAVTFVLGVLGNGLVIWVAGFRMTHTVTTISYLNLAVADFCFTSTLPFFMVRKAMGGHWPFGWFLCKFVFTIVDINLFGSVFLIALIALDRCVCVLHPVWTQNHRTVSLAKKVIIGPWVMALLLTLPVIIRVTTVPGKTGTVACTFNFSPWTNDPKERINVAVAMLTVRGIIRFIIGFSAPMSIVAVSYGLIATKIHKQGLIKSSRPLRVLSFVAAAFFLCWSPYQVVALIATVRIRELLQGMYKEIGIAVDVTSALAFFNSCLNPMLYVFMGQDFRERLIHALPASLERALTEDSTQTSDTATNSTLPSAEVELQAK

[13] = biological target: T4, Mannose-6-phosphate isomerase (Homo sapiens, UniProt P34949); assay: MPI enzyme activity inhibition – biochemical, fluorescence intensity, coupled assay, primary screen (AID 1209)
T4 sequence (P34949 whole entry): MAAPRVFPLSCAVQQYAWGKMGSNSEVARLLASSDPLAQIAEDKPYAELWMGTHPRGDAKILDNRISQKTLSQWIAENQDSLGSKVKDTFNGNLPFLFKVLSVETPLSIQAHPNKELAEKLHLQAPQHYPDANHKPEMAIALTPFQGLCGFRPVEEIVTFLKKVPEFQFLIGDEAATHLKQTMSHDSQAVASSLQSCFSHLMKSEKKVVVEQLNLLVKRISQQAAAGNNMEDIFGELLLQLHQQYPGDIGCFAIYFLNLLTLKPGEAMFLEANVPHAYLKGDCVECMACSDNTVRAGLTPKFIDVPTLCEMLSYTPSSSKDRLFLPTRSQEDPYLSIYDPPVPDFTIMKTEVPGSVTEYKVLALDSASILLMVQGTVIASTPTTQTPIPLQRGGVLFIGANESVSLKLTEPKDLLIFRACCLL

[14] = biological target: T4, Mannose-6-phosphate isomerase; assay: MPI inhibition at elevated mannose 6-phosphate – biochemical, fluorescence intensity, high mannose 6-phosphate, primary screen (AID 1220)
[15] = Trypanosoma cruzi growth suppression in host cells – NIH3T3 host cells, beta-gal luminescence, confirmation (AID 2044); type: functional, cell-based;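 note: intracellular parasites grown in NIH/3T3 mouse fibroblasts as host cells; luminescent beta-galactosidase reporter signal from transgenic T. cruzi replicating inside host cells; inhibitors lower the luminescence signal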
[16] = NIH3T3 cell viability loss – ATP luminescence, mouse fibroblasts, counter-screen, dose response (AID 2010); type: functional, cell-based;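 note: cells exposed to compound for about 90 hours before reading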
[17] = cytotoxicity in HEK293 background cells – cell-based, dry powder, set 2, counter-screen for EBV LMP1 inhibitor project, dose response (AID 624374); type: functional
[18] = viability loss in THP-1 monocytes – THP-1 cells, cytotoxicity control for Vif-APOBEC3G degradation inhibitor project, dose response (AID 1117359); type: functional; settings: THP-1
[19] = fluconazole-exposed Candida albicans growth modulators – fluorescence, retest, confirmation (AID 2467); type: functional, cell-based
Albumin = Albumin (Bos taurus, UniProt P02769); assay: Counterscreen for inhibitors of T-cell receptor (TCR)-CD3 interaction: Fluorescence-based biochemical high throughput dose response assay to identify inhibitors of T-cell receptor (TCR)-CD3 interaction using a TAMRA-labeled BSA probe.; type: functional
Albumin, sequence (P02769 whole entry): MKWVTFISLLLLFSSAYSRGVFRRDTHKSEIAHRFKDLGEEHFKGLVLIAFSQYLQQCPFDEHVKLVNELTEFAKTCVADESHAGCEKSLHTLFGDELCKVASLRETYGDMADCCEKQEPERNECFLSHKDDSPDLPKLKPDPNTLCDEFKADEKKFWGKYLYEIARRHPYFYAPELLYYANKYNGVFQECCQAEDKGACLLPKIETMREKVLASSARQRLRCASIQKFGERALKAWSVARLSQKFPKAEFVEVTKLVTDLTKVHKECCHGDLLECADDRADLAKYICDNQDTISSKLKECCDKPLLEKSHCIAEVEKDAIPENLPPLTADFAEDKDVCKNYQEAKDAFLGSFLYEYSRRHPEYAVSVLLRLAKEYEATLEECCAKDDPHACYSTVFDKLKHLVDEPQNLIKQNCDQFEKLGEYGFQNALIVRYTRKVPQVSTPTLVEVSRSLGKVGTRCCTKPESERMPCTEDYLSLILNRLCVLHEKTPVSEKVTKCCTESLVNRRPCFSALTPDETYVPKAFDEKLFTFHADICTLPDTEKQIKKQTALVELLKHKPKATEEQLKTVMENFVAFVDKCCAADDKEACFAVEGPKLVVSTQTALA

[20] = NIH-3T3 fibroblast cytotoxicity, dose response, cytotoxicity control, cell-based, fluorescence, Alamar Blue, secondary assay (AID 2327); type: functional;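 note: NIH-3T3 mouse fibroblasts cultured with fluconazole at 8 µg/mL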
[21] = biological target: T5, DNA repair protein RAD52 homolog (Homo sapiens, UniProt P43351); type: functional, biochemical
T5 sequence (P43351 whole entry): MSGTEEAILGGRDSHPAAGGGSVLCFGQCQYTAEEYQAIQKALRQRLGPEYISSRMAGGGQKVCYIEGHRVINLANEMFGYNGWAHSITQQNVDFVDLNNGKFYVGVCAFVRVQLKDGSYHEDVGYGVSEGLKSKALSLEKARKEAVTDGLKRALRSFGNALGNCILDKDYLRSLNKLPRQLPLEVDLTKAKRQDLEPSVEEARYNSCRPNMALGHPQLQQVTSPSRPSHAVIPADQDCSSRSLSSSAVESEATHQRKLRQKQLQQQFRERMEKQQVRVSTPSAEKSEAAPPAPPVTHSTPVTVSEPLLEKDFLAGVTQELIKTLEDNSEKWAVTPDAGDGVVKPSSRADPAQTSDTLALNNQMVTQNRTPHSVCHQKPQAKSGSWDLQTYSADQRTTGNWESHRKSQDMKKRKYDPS

[22] = Vero E6 cell cytotoxicity, dose response, cytotoxicity control for non-replicating M. tuberculosis project, secondary assay (AID 492998); type: functional, VeroE6; settings: Vero C1008
cells [23] = type: functional, cell-based
cells [24] = type: functional
cells [25] = type: functional, cell-based; remark: listed apart in the source
[26] = THP-1 cell cytotoxicity, dose response, cytotoxicity control for non-replicating M. tuberculosis project (AID 489025); type: functional
Protein Tat = biological target: T6, Protein Tat (Human immunodeficiency virus type 1 group M subtype B (isolate HXB2)(HIV-1), UniProt P04608); type: functional;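 note: tat binding to TAR RNA read out by fluorescence polarization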
T6 sequence (P04608 whole entry): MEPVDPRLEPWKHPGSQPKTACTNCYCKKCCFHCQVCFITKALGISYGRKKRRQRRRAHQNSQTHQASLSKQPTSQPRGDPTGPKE

C=CCC[C@H](Cc1ccc(F)cc1)C(=O)OC[C@@H](Cc1c[nH]c2ccccc12)NC(=O)[C@@H](CC=C)CC(=O)N(CCO)Cc1ccccc1
AC50 [1]: 4.62 µM (active) | IC50 [2]: > 69.5 µM (inactive) | IC50 [3]: > 69.5 µM (inactive)

Oc1cc(O)cc(C=Cc2ccc(O)c(O)c2)c1
Ki [4]: > 2.51 µM (inactive) | Ki [5]: 2.51 µM (active) | AC50 (Caspase-8): > 70 µM (inactive) | AC50 (Caspase-7): > 70 µM (inactive) | AC50 (Caspase-6): 1.2 µM (active)

Oc1cccc(CCNc2ccnc3ccccc23)c1O
IC50 [6]: 2.7 µM (active)

COc1ccccc1N1C(=O)NC(=O)/C(=C/c2ccc3c4c(cccc24)CC3)C1=O
IC50 [7]: 2.23 µM (active)

O=C1C=C(Nc2ccc3ccccc3c2)C(=O)c2ccccc21
AC50 [8]: 1.65 µM (active) | AC50 [9]: 49.4 µM (active)

Cc1ccc(C)c(N2CCN(C(=O)c3cc4c(C)nc5ccccc5c4o3)CC2)c1
CC50 [10]: 8.05 µM (active) | IC50 (Beta-galactosidase): > 80 µM (inactive)

CC(C)N1C[C@H](C)[C@@H](CN(C)Cc2ccc(Oc3ccccc3)cc2)Oc2c(cccc2-c2cn(-c3ccncc3)nn2)C1=O
AC50 [11]: 0.0204 µM (active)

CCCCn1c(NC(=O)CC)c(C#N)c2nc3ccccc3nc21
IC50 (Estrogen receptor): 23.4 µM (active) | IC50 [12]: 1.55 µM (active) | Ki (fMet-Leu-Phe receptor): 24.2 µM (inactive)

Cn1ncc2c(NNC(=O)c3ccc(Cl)cc3Cl)ncnc21
IC50 [13]: > 50 µM (not active) | IC50 [14]: > 50 µM (not active)

OC(COCC(F)(F)C(F)(F)C(F)(F)C(F)F)Cn1c2ccccc2c2ccccc21 (centres undefined)
EC50 [15]: 1.71 µM (active) | EC50 [16]: > 60 µM (inconclusive) | AC50 [1]: 2.9 µM (active) | IC50 [2]: > 69.5 µM (inactive) | IC50 [3]: > 7.73 µM (active)

Cc1cccc(-c2ccc([C@H]3[C@H](CO)N4CCCCN(C(=O)c5ccncc5)C[C@@H]34)cc2)c1
AC50 [11]: 2.46 µM (active)

NCCNc1c2ccccc2nc2ccccc12
IC50 [6]: 0.5 µM (active)

CCOC(=O)C1=C(Nc2ccc(OC)cc2)S/C(=C\c2cc(OC)c(OC)c(OC)c2)C1=O
IC50 (Beta-galactosidase): > 80 µM (inactive)

CO[C@H]1CN(C)C(=O)c2ccc(NC(=O)C3CC3)cc2OC[C@H](C)N(C(=O)c2ccccn2)C[C@H]1C
AbsAC35 [17]: 207.94 µM

CC(=O)NN1C(=O)/C(=C\c2ccc(Br)o2)SC1=S
CC50 [18]: > 40 µM (active)

Cc1ccc(C(=O)NNC(=O)c2cc3ccccc3cc2O)cc1
EC50 [19]: 3.16 µM (active) | IC50 (Albumin): > 94.1 µM (inactive) | EC50 [20]: > 160 µM (inactive)

Cc1cc(N/N=C/c2ccccc2O)c2ccccc2n1
AC50 [21]: 5.36 µM (active) | CC50 [22]: 17.6 µM (active) | EC50 (cells [23]): > 29.9 µM (inactive) | IC50 (cells [24]): 7.92 µM (active) | IC50 (cells [25]): > 29.9 µM (inactive) | CC50 [26]: 25.6 µM (active)

COc1ccc(NC(=O)CN(C)C(=O)c2cccc(-n3cccc3)c2)cc1
AC50 (Caspase-8): 61.2 µM (active) | AC50 (Caspase-7): > 70 µM (inactive) | AC50 (Caspase-6): 4.5 µM (active) | IC50 (Protein Tat): > 100 µM (active)

Cc1ccc(C)c(N(C(=O)c2snc(C(N)=O)c2N)C(C(=O)NCC2CCCO2)c2cccs2)c1 (centres undefined)
IC50 [7]: > 1.11 µM (active)
